This is an account of results in patent publication US10100010B1, “4-methoxy pyrrole derivatives or salts thereof and pharmaceutical composition comprising the same” (Daewoong Pharmaceutical Co., Ltd., priority 2015, dated 2018).

What all share (type): cell-based
One assay has as its target 5-HT2A (Homo sapiens, UniProt P28223). As to the kind of experiment: GPCR Calcium Flux assay (FLIPR tetra, Eurofins), 5-HT2A. Conditions: for IC50: 8 concentrations 10 to 0.0006 uM, read-out: 50% inhibitory concentration (IC50) 5-HT2A; for inhibition at 10 µM: read-out: inhibition rate (%) 5-HT2A. As for the experimental part:
(§1) In order to confirm whether the compounds prepared in the above Examples act as an agonist or antagonist against GPCR Target, Calcium Flux assay was performed in an assay plate in which the compounds prepared in the Examples, vehicle controls, and reference compounds were added, using a Fluorometric imaging plate reader (FLIPR tetra) equipment.
(§2) Calcium Flux assay was evaluated by entrusting the GPCR profiler assay in Safety panel assays with Eurofins. By using the Fluo-8AM calcium dye, excitation was measured at a wavelength in the range of 470 to 495 nm and Emission was measured at a wavelength in the range of 515-575 nm. GPCR Assay Buffer for Calcium Flux assay was prepared by adding 20 mM of HEPES and 2.5 mM of Probenecid to Hanks Balanced Salt Solution (HBSS) to have pH 7.4. The Compounds of Examples for evaluation of the GPCR were diluted with DMSO at a concentration of 10 mM to make a stock and then prepared by diluting in the GPCR Assay Buffer at the concentration equivalent to three times the final concentration. First, for the evaluation of GPCRs, the inhibitory activity of the compounds of the Examples was evaluated at a single concentration of 10 uM, and then the respective selected targets were four fold-diluted from 10 uM to the low side to calculate 50% inhibitory concentration (IC50), prepared at the total 8 concentrations of 10, 2.5, 0.62, 0.15, 0.04, 0.01, 0.0024, 0.0006 uM, and Calcium Flux assay for GPCR was conducted. In order to evaluate the agonist and antagonist, % inhibition rate against GPCR activity before and after treatment of the compounds and the inhibitory activity of the compounds of the Examples were determined.
(§3) As a result, when the efficacy of […] and acetylcholine of the compounds prepared in the Examples was 100%, the inhibition rate (%) at a single concentration of 10 uM was evaluated and shown in Table 8.
In general terms: A change in cytosolic calcium serves as a functional read-out for many receptors and channels.

Another assay concerns the target T1, M1 (Homo sapiens, UniProt P11229).
T1 sequence (P11229 1-460): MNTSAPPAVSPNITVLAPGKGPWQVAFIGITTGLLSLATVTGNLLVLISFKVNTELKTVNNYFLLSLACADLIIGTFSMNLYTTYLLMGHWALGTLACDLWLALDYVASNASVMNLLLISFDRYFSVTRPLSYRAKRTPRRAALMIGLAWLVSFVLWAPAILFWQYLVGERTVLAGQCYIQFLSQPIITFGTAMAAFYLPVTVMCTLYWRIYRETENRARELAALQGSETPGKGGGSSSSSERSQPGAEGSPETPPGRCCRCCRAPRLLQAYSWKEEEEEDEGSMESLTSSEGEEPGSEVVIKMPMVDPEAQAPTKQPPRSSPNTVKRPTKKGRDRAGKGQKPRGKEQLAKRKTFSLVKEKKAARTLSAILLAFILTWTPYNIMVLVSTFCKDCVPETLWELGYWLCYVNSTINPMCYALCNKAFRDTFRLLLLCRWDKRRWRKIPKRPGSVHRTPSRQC
As to the kind of experiment: GPCR Calcium Flux assay (FLIPR tetra, Eurofins), M1. Conditions: for inhibition at 10 µM: read-out: inhibition rate (%) M1; for IC50: 8 concentrations 10 to 0.0006 uM, read-out: 50% inhibitory concentration (IC50) M1. The procedure: as §1, §2, §3

Another assay concerns the target T2, M2 (Homo sapiens, UniProt P08172).
T2 sequence (P08172 1-466): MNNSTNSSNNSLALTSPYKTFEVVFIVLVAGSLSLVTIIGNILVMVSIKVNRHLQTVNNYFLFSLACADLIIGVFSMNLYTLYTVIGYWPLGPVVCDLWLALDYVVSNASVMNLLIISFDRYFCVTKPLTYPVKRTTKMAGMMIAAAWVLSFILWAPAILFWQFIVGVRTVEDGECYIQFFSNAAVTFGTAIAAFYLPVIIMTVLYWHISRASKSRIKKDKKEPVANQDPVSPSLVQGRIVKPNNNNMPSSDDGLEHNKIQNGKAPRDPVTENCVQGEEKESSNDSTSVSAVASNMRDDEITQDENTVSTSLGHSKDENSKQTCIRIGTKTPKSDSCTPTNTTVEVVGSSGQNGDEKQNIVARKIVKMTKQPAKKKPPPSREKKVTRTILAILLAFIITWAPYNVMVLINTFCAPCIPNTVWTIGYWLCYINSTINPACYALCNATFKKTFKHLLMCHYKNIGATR
As to the kind of experiment: GPCR Calcium Flux assay (FLIPR tetra, Eurofins), M2. Conditions: for inhibition at 10 µM: read-out: inhibition rate (%) M2. As for the experimental part:
as §1, §2, §3

Counter-ions that a name gives are not always drawn. Like-named read-outs stand apart in the source and are kept apart here.

Chain of 5-HT2A (P28223 whole entry): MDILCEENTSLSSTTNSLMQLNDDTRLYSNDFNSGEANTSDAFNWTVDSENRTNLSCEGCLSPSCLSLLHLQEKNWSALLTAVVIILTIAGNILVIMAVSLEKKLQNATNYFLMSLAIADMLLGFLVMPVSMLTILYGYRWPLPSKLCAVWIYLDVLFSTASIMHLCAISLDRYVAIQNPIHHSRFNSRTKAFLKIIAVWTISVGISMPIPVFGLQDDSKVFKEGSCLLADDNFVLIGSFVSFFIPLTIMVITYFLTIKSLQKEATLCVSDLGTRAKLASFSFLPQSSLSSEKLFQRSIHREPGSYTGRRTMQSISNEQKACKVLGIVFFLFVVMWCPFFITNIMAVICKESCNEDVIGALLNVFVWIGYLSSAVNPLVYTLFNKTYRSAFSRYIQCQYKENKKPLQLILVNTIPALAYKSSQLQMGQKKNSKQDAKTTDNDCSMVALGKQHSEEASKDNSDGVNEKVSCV

For orientation: inhibition means the drop in the measured response relative to a control, in per cent. In the case of `CNCc1cn(S(=O)(=O)c2cccc(OC(F)F)c2)c(-c2ccccc2F)c1OC` [Example 4, 1-(5-(2-fluorophenyl)-4-methoxy-1-((3-difluoromethoxyphenyl)sulfonyl)-1H-pyrrol-3-yl)-N-methylmethanamine hydrochloride], the IC50 at 5-HT2A amounted to 850 nM. Besides, the inhibition at 10 µM was 96% at 5-HT2A (single concentration of 10 uM), 55.8% on M1 (single concentration of 10 uM) and 22% at M2 (single concentration of 10 uM).
Regarding `CNCc1cn(S(=O)(=O)c2cccc(C)c2)c(-c2c(F)cccc2F)c1OC` [Example 16, 1-(5-(2,6-difluorophenyl)-1-((3-methylphenyl)sulfonyl)-4-methoxy-1H-pyrrol-3-yl)-N-methylmethanamine fumarate], the values for the IC50 at 5-HT2A and on M1 were 58 nM and 1900 nM, respectively. The inhibition at 10 µM was determined as 102% at 5-HT2A, 95.4% at M1 and 69.7% on M2.
For `CNCc1cn(S(=O)(=O)c2cccc(C)c2)c(-c2ccc(F)cc2F)c1OC` [Example 10, 1-(5-(2,4-difluorophenyl)-1-((3-methylphenyl)sulfonyl)-4-methoxy-1H-pyrrol-3-yl)-N-methylmethanamine hydrochloride], the IC50 at 5-HT2A was 360 nM; on M1, 1300 nM. Moreover, the results for the inhibition at 10 µM on 5-HT2A (single concentration of 10 uM), on M1 (single concentration of 10 uM) and at M2 (single concentration of 10 uM) were 101%, 96.2% and 77.6%, respectively.
As to `CNCc1cn(S(=O)(=O)c2cccc(Cl)c2)c(-c2ccccc2F)c1OC` [Example 1, 1-(5-(2-fluorophenyl)-4-methoxy-1-((3-chlorophenyl)sulfonyl)-1H-pyrrol-3-yl)-N-methylmethanamine hydrochloride], the IC50 came out at 250 nM on 5-HT2A and 1700 nM on M1. Besides, the figures for the inhibition at 10 µM on 5-HT2A (single concentration of 10 uM), at M1 (single concentration of 10 uM) and at M2 (single concentration of 10 uM) were 96.4%, 99.6% and 66.5%, respectively.
Turning to `CNCc1cn(S(=O)(=O)c2cccc(Cl)c2)c(-c2c(F)cccc2F)c1OC` [Example 14, 1-(5-(2,6-difluorophenyl)-1-((3-chlorophenyl)sulfonyl)-4-methoxy-1H-pyrrol-3-yl)-N-methylmethanamine hydrochloride], at 5-HT2A, the IC50 was 210 nM. Also, the results for the inhibition at 10 µM at 5-HT2A (single concentration of 10 uM), at M1 (single concentration of 10 uM) and at M2 (single concentration of 10 uM) were 99.9%, 94.9% and 48.1%, respectively.
With `CNCc1cn(S(=O)(=O)c2cccc(Cl)c2)c(-c2ccc(Cl)cc2F)c1OC` [Example 6, 1-(5-(2-fluoro-4-chlorophenyl)-4-methoxy-1-((3-chlorophenyl)sulfonyl)-1H-pyrrol-3-yl)-N-methylmethanamine hydrochloride], the results for the IC50 at 5-HT2A and at M1 were 160 nM and roughly 3000 nM, respectively. Further, the inhibition at 10 µM at 5-HT2A (single concentration of 10 uM) was found to be 102%; on M1 (single concentration of 10 uM), 93.1%; at M2 (single concentration of 10 uM) it was 15.1%.
As to `CNCc1cn(S(=O)(=O)c2cccc(OC)c2)c(-c2cc(F)ccc2F)c1OC` [Example 33, 1-(5-(2,5-difluorophenyl)-1-((3-methoxyphenyl)sulfonyl)-4-methoxy-1H-pyrrol-3-yl)-N-methylmethanamine hydrochloride], the IC50 on 5-HT2A was 1700 nM. The inhibition at 10 µM turned out to be 96.7% on 5-HT2A (single concentration of 10 uM), 81.5% at M1 (single concentration of 10 uM) and 29% on M2 (single concentration of 10 uM).
As to `CNCc1cn(S(=O)(=O)c2ccc(F)c(Cl)c2)c(-c2c(F)cccc2F)c1OC` [Example 18, 1-(5-(2,6-difluorophenyl)-1-((3-chloro-4-fluorophenyl)sulfonyl)-4-methoxy-1H-pyrrol-3-yl)-N-methylmethanamine hydrochloride], the IC50 at 5-HT2A is 210 nM; at M1, roughly 2100 nM. Besides, the inhibition at 10 µM on 5-HT2A (single concentration of 10 uM) was determined as 98.1%; at M1 (single concentration of 10 uM), 91.2%; on M2 (single concentration of 10 uM) it was 42.1%.
`CNCc1cn(S(=O)(=O)c2cccc(F)c2)c(-c2c(F)cccc2Cl)c1OC` [Example 20, 1-(5-(2-fluoro-6-chlorophenyl)-1-((3-fluorophenyl)sulfonyl)-4-methoxy-1H-pyrrol-3-yl)-N-methylmethanamine hydrochloride]: the results for the inhibition at 10 µM on 5-HT2A (single concentration of 10 uM), on M1 (single concentration of 10 uM) and on M2 (single concentration of 10 uM) were 99.2%, 103% and 90.5%, respectively.
In the same order, the values of `CNCc1cn(S(=O)(=O)c2cccc(C(F)(F)F)c2)c(-c2ccc(Cl)cc2F)c1OC` [Example 7, 1-(5-(2-fluoro-4-chlorophenyl)-4-methoxy-1-((3-(trifluoromethyl)phenyl)sulfonyl)-1H-pyrrol-3-yl)-N-methylmethanamine hydrochloride] are 42.3%, 65.6% and 0.8%.
For `CNCc1cn(S(=O)(=O)c2cccc(C(F)(F)F)c2)c(-c2c(F)ccc(F)c2F)c1OC` [Example 29, 1-(1-((3-trifluoromethylphenyl)sulfonyl)-4-methoxy-5-(2,3,6-trifluorophenyl)-1H-pyrrol-3-yl)-N-methylmethanamine hydrochloride] the same measures were 35.7%, 68.4% and 19.4%.
For `CNCc1cn(S(=O)(=O)c2ccc(F)c(F)c2)c(-c2c(F)cccc2F)c1OC` [Example 19, 1-(5-(2,6-difluorophenyl)-1-((3,4-difluorophenyl)sulfonyl)-4-methoxy-1H-pyrrol-3-yl)-N-methylmethanamine hydrochloride], the IC50 on 5-HT2A was found to be 120 nM; at M1 it was 430 nM; at M2 (8 concentrations 10 to 0.0006 uM, read-out: 50% inhibitory concentration (IC50) M2), 820 nM. The inhibition at 10 µM on 5-HT2A (single concentration of 10 uM) came out at 102%; on M1 (single concentration of 10 uM), 101%; on M2 (single concentration of 10 uM), 102%.
Consider `CNCc1cn(S(=O)(=O)c2cccc(OC)c2)c(-c2c(F)ccc(F)c2F)c1OC` [Example 30, 1-(1-((3-methoxyphenyl)sulfonyl)-4-methoxy-5-(2,3,6-trifluorophenyl)-1H-pyrrol-3-yl)-N-methylmethanamine hydrochloride], for which the inhibition at 10 µM came out at 100% at 5-HT2A (single concentration of 10 uM), 94.3% on M1 (single concentration of 10 uM) and 43% at M2 (single concentration of 10 uM). Moreover, the IC50 at M1 came out at 1400 nM.
In the case of `CNCc1cn(S(=O)(=O)c2cccc(OC)c2)c(-c2ccccc2F)c1OC` [Example 3, 1-(5-(2-fluorophenyl)-4-methoxy-1-((3-methoxyphenyl)sulfonyl)-1H-pyrrol-3-yl)-N-methylmethanamine hydrochloride], the IC50 at 5-HT2A came out at 180 nM. Further, the inhibition at 10 µM at 5-HT2A (single concentration of 10 uM) was 94%; at M1 (single concentration of 10 uM), 87%; on M2 (single concentration of 10 uM), 76.9%.
With `CNCc1cn(S(=O)(=O)c2ccc(F)c(F)c2)c(-c2c(F)cc(F)cc2F)c1OC` [Example 26, 1-(1-((3,4-difluorophenyl)sulfonyl)-4-methoxy-5-(2,4,6-trifluorophenyl)-1H-pyrrol-3-yl)-N-methylmethanamine hydrochloride], the values for the inhibition at 10 µM on 5-HT2A (single concentration of 10 uM), on M1 (single concentration of 10 uM) and on M2 (single concentration of 10 uM) were 99%, 101% and 89.2%, respectively.
